What all share (assay type): in vivo
Assay [1] has as its system green peach aphids (Myzus persicae). Description: Insecticidal test for green peach aphids. Conditions: Myzus persicae, foliar, 144 h; 500 ppm chemical solution sprinkled (2.5 mg/cm^2), wingless imagoes on leaf disc, six days, 25°C; read-out: death rate. In a few lines:
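Four wingless Myzus persicae adults on a 3 cm Chinese olive leaf disc over wet cotton, sprayed one day later with a 500 ppm dilution of a 10% emulsion plus spreader (2.5 mg/cm^2, rotary tower). Dishes were capped and held at 25°C. Run in duplicate.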

Assay [2] concerns kennel ticks (Rhipicephalus sanguineus). Kind of assay: Effect test for kennel ticks. The conditions noted are these: Rhipicephalus sanguineus, 48 h; 10 µg/cm^2 thin film in glass container, protonymphs, two days, 25°C; read-out: death rate. The protocol:
In 1 ml of acetone, 1 mg of the presently invented compound was dissolved to prepare a chemical solution having a concentration of 1000 ppm. The bottom surface and side surface of each glass container having an inner wall surface area of 25 cm^2 were coated with 250 µl of the chemical solution, and acetone was then volatilized to form a thin film of the compound on the inner wall of the glass container.
Into each of the treated glass containers, five kennel ticks (Rhipicephalus sanguineus) protonymphs (mixed-sex) were released, and the glass containers were capped and accommodated in a thermostatic room at 25°C.

For assay [3], the system named is diamondback moths (Plutella xylostella). Kind of assay: Insecticidal test for diamondback moths. The conditions noted are these: Plutella xylostella, 144 h; 500 ppm chemical solution, leaves soaked, third-instar larvae, six days, 25°C; read-out: death rate. In outline:
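Leaves dipped about 10 s in a 500 ppm aqueous dilution of an emulsion formulation with spreader, then air-dried. Five third-instar larvae released per dish and held at 25 °C. Tested in duplicate.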

Assay [4] concerns cat fleas (Ctenocephalides felis). Description: whole plant or invertebrate. Conditions: 72 h, read-out: death rate. In outline: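 Glass containers (25 cm² inner surface) were coated with 250 µl of a 1000 ppm acetone solution, and the acetone was evaporated to leave a dry film. Five mixed-sex adult fleas were confined per container at 25°C. Mortality was scored after 3 days.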

The subject of assay [5] is western flower thrips (Frankliniella occidentalis). Description: Insecticidal activity against western flower thrips. The conditions noted are these: Frankliniella occidentalis, 48 h; 500 ppm chemical solution sprinkled (2.5 mg/cm^2), larvae on common bean leaf, after 2 days; read-out: death rate. In a few lines: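 Bean leaf squares on wet filter paper inoculated with 20 larvae. Compound emulsion diluted with spreader-containing water to 500 ppm and sprayed at 2.5 mg/cm^2 by rotary tower. Run in duplicate.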

For assay [6], the system named is brown rice planthoppers (Nilaparvata lugens). Kind of assay: Insecticidal test for brown rice planthoppers. The conditions noted are these: Nilaparvata lugens, 144 h; 500 ppm chemical solution, rice leaf sheaths soaked, third-instar larvae, six days, 25°C; read-out: death rate. In outline:
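Rice leaf sheaths dipped ~10 s in 500 ppm compound solution (emulsion diluted in water with spreader), air-dried, then infested with five third-instar larvae per tube at 25 °C. Mortality scored after 6 days, death rate calculated, in duplicate.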

For `O=C(Nc1ccc(F)cc1)C1=C(O)CC(c2ccc(C(F)(F)F)c(-c3cccc(F)c3)c2)NC1=O` (centres unmarked) [1-006], the mortality at 500 µg/mL in assay [1] and in assay [3] was at least 90% each time. Further, the mortality at 10 µg/cm2 in assay [2] and in assay [4] was at least 50% throughout.

`O=C(Nc1ccc(F)cc1)C1=C(O)CC(c2ccc(C(F)(F)F)c(-c3ccc(F)cc3)c2)NC1=O` (centres unmarked) [1-007]: the mortality at 500 µg/mL in assay [1], in assay [3] and in assay [5] was at least 90% each time. For the same compound, the mortality at 10 µg/cm2 in assay [2] and in assay [4] was at least 50% throughout.

In the case of `O=C(Nc1c(F)cccc1F)C1=C(O)CC(c2nc(-c3ccncc3F)no2)NC1=O` (centres unmarked) [3-166], the mortality at 500 µg/mL in assay [1], in assay [3] and in assay [6] was at least 90% throughout. Further, the mortality at 10 µg/cm2 in assay [2] and in assay [4] was at least 50% each time.

The values are drawn from patent publication EP4582413A1, “ARYLTETRAHYDROPYRIDINE COMPOUND AND PEST CONTROL AGENT” (priority 2022, dated 2024).
